Here are results for 59 compounds from patent publication US12581252B2, “Substituted pyrrolo[3,4-b]pyridines as PI3K-α inhibitors” (Relay Therapeutics, Inc., priority 2020, dated 2026).

For orientation: pIC50 means −log10 of the IC50, conventionally taken in molar units. A higher pIC50 goes with a small IC50.

pIC50: −log10 of the molar value.

H1047R PIK3CA enzyme, sequence (P42336 whole entry H1047R): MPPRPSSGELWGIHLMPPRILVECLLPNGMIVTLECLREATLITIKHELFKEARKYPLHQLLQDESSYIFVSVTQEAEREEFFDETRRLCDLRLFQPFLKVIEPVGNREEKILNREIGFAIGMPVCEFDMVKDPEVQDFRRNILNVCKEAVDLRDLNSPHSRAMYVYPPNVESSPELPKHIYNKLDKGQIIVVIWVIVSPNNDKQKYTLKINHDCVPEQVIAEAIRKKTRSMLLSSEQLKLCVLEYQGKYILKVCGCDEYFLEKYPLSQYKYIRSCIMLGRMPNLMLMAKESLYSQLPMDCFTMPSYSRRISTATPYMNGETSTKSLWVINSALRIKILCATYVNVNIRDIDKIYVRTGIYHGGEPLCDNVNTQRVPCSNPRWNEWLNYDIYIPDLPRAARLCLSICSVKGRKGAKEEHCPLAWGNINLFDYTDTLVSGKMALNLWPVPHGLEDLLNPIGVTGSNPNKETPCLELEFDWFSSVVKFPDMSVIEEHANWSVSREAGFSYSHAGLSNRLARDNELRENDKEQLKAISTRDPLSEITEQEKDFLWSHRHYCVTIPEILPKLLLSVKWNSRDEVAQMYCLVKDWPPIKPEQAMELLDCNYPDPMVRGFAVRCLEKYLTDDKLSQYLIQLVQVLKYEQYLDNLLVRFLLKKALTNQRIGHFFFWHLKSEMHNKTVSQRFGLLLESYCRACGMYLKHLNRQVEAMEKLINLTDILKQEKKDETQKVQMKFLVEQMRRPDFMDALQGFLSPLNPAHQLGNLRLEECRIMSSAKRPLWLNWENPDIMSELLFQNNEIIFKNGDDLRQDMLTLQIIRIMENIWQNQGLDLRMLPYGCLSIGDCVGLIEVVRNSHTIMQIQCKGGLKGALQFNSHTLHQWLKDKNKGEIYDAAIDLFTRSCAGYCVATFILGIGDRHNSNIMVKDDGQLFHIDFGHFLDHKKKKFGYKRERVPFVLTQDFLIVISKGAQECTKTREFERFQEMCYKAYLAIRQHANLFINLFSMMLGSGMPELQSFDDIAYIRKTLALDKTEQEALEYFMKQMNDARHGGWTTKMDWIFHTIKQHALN
H1047R PIK3CA enzyme, sequence (P27986 whole entry partner): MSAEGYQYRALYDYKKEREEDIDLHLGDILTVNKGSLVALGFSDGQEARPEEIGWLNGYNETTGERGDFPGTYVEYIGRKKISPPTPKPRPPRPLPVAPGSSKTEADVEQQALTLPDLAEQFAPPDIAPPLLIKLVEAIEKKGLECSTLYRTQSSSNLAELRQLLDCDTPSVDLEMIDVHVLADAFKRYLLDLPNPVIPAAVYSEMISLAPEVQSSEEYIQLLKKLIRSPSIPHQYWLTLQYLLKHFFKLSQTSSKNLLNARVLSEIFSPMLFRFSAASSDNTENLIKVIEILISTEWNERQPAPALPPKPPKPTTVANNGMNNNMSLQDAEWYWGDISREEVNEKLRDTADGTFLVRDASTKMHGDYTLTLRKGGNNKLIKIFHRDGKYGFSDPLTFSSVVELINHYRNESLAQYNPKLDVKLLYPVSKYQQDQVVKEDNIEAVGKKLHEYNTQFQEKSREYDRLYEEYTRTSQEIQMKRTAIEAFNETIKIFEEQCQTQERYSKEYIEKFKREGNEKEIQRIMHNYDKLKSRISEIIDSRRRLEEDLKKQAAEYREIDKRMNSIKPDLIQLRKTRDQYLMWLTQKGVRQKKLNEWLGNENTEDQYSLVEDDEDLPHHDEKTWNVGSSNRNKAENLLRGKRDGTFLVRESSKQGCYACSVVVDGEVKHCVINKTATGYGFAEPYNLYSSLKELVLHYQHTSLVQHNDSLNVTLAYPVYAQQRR

The assay has as its target H1047R PIK3CA enzyme (Homo sapiens, UniProt P42336, H1047R). Description: ADP-Glo Biochemical PIK3CA Kinase Assay. Background: ADP-Glo first removes unused ATP, then detects ADP through luciferase.
Take `O=C(Nc1cc(Br)cc2c1[C@@H](c1ccccc1C(F)F)NC2=O)c1cc(F)cc(C(F)(F)F)c1` [Compound I-790]: the pIC50 was 5.00 to 6.00. On to `Cn1ccnc1C(C)(O)c1cc(NC(=O)c2cc(F)cc(C(F)(F)F)c2)c2c(c1)C(=O)NC2c1cc(F)ccc1Cl` (centres unmarked) [Compound I-1199], for which the negative-log IC50 (pIC50) was at least 7.00.

As for `O=C(Nc1cccc2c1C(c1cc(F)ccc1Cl)NC2=O)c1csc2c1CCNC2` (centres unmarked) [Compound I-2304], the pIC50 is 4.00 to 5.00. Take `CC(=O)N1CC2(C1)CN(c1cc(NC(=O)c3cc(F)cc(C(F)(F)F)c3)c3c(c1)C(=O)NC3c1cc(F)ccc1Cl)C2` (centres unmarked) [Compound I-1301]: the negative logarithm of the IC50 (pIC50) was 6.30 to 7.00.

For the compound `N#Cc1cnc2cnc(-c3cc(NC(=O)c4cc(F)cc(C(F)(F)F)c4)c4c(c3)C(=O)N[C@H]4c3cc(F)ccc3Cl)cn12` [Compound I-1923], the pIC50 was at least 7.00. To `O=C1NC(c2cc(F)ccc2Cl)c2c(NC(=O)C34C5C6C7C5C3C7C64)cc(Br)cc21` (centres unmarked) [Compound I-1182] belongs 5.00 to 6.00. To `NS(=O)(=O)Cc1cc(NC(=O)c2cc(F)cc(C(F)(F)F)c2)c2c(c1)C(=O)NC2c1cc(F)ccc1Cl` (centres unmarked) [Compound I-1367] belongs at least 7.00.

Turning to `O=C(Nc1cc(Br)cc2c1C(c1cc(F)ccc1Cl)NC2=O)c1cc(Cl)ccc1Cl` (centres unmarked) [Compound I-795], the negative logarithm of the IC50 (pIC50) is 5.00 to 6.00. To `Cc1ccc(-c2cc(NC(=O)c3cc(F)cc(Cl)c3)c3c(n2)C(=O)NC3c2cc(F)ccc2Cl)cn1` (centres unmarked) [Compound I-497] belongs 6.30 to 7.00; to `CCCNc1cc(NC(=O)c2cc(F)cc(C(F)(F)F)c2)c2c(n1)C(=O)NC2c1cc(F)ccc1Cl` (centres unmarked) [Compound I-319], at least 7.00; to `O=C1NC(c2cc(F)ccc2Cl)c2c(NC(=O)N3CCC(c4ccccc4)C3)cc(Br)cc21` (racemic) [Compound I-598], 5.00 to 6.00.

For `O=C1N[C@H](c2cc(F)ccc2Cl)c2c(NC(=O)N3C[C@](O)(C(F)(F)F)c4cc(F)ccc43)ccc(-n3nccn3)c21` (single isomer, unassigned) [Compound I-2526], the negative-log IC50 (pIC50) is 5.00 to 6.00. `O=C(Nc1cccc2c1C(c1cc(F)ccc1Cl)NC2=O)c1cc(F)cnc1NC1CCC1` (centres unmarked) [Compound I-768] showed a pIC50 of 5.00 to 6.00.

`O=C(Nc1ccnc2c1C(c1cccc(F)c1F)NC2=O)c1cc(F)cc(Cl)c1` (centres unmarked) [Compound I-173] had a pIC50 of 5.00 to 6.00. To `N#CCc1cc(NC(=O)c2cc(F)cc(C(F)(F)F)c2)c2c(c1)C(=O)NC2c1cc(F)ccc1Cl` (centres unmarked) [Compound I-533] belongs at least 7.00.

For the compound `O=C(Nc1cc(-c2ccc3nc[nH]c3c2)cc2c1C(c1cc(F)ccc1Cl)NC2=O)c1cc(F)cc(C(F)(F)F)c1` (centres unmarked) [Compound I-1035], the pIC50 was at least 7.00. To `Cn1cncc1-c1cc(NC(=O)c2cc(F)cc(C(F)(F)F)c2)c2c(c1)C(=O)NC2c1cc(F)ccc1Cl` (centres unmarked) [Compound I-1272] belongs at least 7.00. To `O=C1N[C@H](c2cc(F)ccc2Cl)c2c(NC(=O)[C@@H]3CCC[C@H](C(F)(F)F)C3)cc(-c3ccc4ncnn4c3)cc21` [Compound I-2031] belongs 5.00 to 6.00. To `O=C(O)c1cc(F)cc(C(=O)Nc2cc(Br)cc3c2C(c2cc(F)ccc2Cl)NC3=O)c1` (centres unmarked) [Compound I-954] belongs 4.00 to 5.00. For the compound `O=C(Nc1cc(OCC(F)F)cc2c1[C@@H](c1cc(F)ccc1Cl)NC2=O)c1cc(F)cc(C(F)(F)F)c1` [Compound I-2061], the pIC50 was 5.00 to 6.00. `O=C(Nc1cc(Br)cc2c1C(c1cc(F)ccc1Cl)NC2=O)c1ccc(OC(F)(F)F)c(F)c1` (centres unmarked) [Compound I-1313]: the pIC50 was 5.00 to 6.00.

In turn, `CC(C)(O)Cc1cc(NC(=O)c2cc(F)cc(Cl)c2)c2c(c1)C(=O)NC2c1cc(F)ccc1Cl` (centres unmarked) [Compound I-645] gave a pIC50 of at least 7.00. To `O=C1NC(c2cc(F)ccc2Cl)c2c(NC(=O)C34CC5CC(CC(Cl)(C5)C3)C4)cc(Br)cc21` (centres unmarked) [Compound I-1179] belongs at least 7.00. On to `O=C1NC(c2cc(F)ccc2Cl)c2c(NC(=O)N3CCC(F)(F)C3)cc(Br)cc21` (centres unmarked) [Compound I-482], for which the pIC50 is 5.00 to 6.00. To `O=C1NC(c2cc(F)ccc2Cl)c2c(NC3CCCS(=O)(=O)C3)cc(-c3ccc4ncnn4c3)cc21` (centres unmarked) [Compound I-2078] belongs 4.00 to 5.00; to `N#C[C@@H]1CCN(C(=O)Nc2cc(-c3ccc4ncnn4c3)cc3c2C(c2cc(F)ccc2Cl)NC3=O)C1` (mixture of isomers) [Compound I-2416], 4.00 to 5.00; to `Cc1ccccc1C1NC(=O)c2cccc(NCc3nsc4ccccc34)c21` (centres unmarked) [Compound I-145], 4.00 to 5.00. The value for `CN1CC(c2cc(NC(=O)c3cc(F)cc(C(F)(F)F)c3)c3c(c2)C(=O)NC3c2cc(F)ccc2Cl)NCC1=O` (centres unmarked) [Compound I-1277] was at least 7.00; that for `CCC[C@@]1(O)CN(C(=O)Nc2cccc3c2[C@@H](c2cc(F)ccc2Cl)NC3=O)c2ccc(F)cc21` (single isomer, unassigned) [Compound I-2457] was 6.00 to 6.30.

Consider `O=C1NC(c2cc(F)ccc2Cl)c2c(NC(=O)N3CCCc4ccccc4C3)cccc21` (centres unmarked) [Compound I-2305], for which the pIC50 is 4.00 to 5.00.

As to `O=C(Nc1cc(OCc2cccnc2)cc2c1C(c1cc(F)ccc1Cl)NC2=O)c1cc(F)cc(C(F)(F)F)c1` (centres unmarked) [Compound I-1412], the pIC50 is at least 7.00.

With `O=C(Nc1cc(-c2ccc3nccn3c2)cc2c1[C@@H](c1cc(F)ccc1Cl)NC2=O)c1cc(F)cc(C(F)(F)F)c1` [Compound I-826], the pIC50 is 6.00 to 6.30.

`CC[C@]1(O)CN(C(=O)Nc2cccc3c2[C@@H](c2cc(F)ccc2Cl)NC3=O)c2ccc(F)cc21` (single isomer, unassigned) [Compound I-2460]: the pIC50 was 5.00 to 6.00. Regarding `Nc1nnc2ccc(-c3cc(NC(=O)c4cc(F)cc(C(F)(F)F)c4)c4c(c3)C(=O)NC4c3cc(F)ccc3Cl)cn12` (centres unmarked) [Compound I-1373], the pIC50 is at least 7.00. The value for `O=C1N[C@H](c2cc(F)ccc2Cl)c2c(NC(=O)N3C[C@](O)(C(F)(F)F)c4cc(F)ccc43)cc(F)cc21` (single isomer, unassigned) [Compound I-2631] was at least 7.00; that for `Cn1ccc(-c2cc(NC(=O)c3cc(F)cc(Cl)c3)c3c(n2)C(=O)NC3c2cc(F)ccc2Cl)cc1=O` (centres unmarked) [Compound I-499] was 6.30 to 7.00.

`CC(C)(O)c1cc(NC(=O)N2CCc3ccccc32)c2c(c1)C(=O)N[C@@H]2c1cc(F)ccc1Cl` [Compound I-714] gave a negative logarithm of the IC50 (pIC50) of 4.00 to 5.00.

In turn, `COc1ncc(-c2cc(NC(=O)c3cc(F)cc(C(F)(F)F)c3)c3c(c2)C(=O)NC3c2cc(F)ccc2Cl)cn1` (centres unmarked) [Compound I-782] had a pIC50 of at least 7.00. The value for `NCc1cc(NC(=O)N2C[C@](O)(C(F)F)c3cc(F)ccc32)c2c(c1)C(=O)N[C@@H]2c1cc(F)ccc1Cl` (single isomer, unassigned) [Compound I-2695] was 5.00 to 6.00. In the case of `O=C(Nc1cc(-c2cn[nH]c2)nc2c1C(c1cc(F)ccc1Cl)NC2=O)c1cc(F)cc(Cl)c1` (centres unmarked) [Compound I-182], the pIC50 was 6.30 to 7.00.

In turn, `O=C(Nc1cc(NC2COC2)cc2c1[C@@H](c1cc(F)ccc1Cl)NC2=O)c1cc(F)cc(C(F)(F)F)c1` [Compound I-830] gave a pIC50 of 5.00 to 6.00.

`NC(=O)c1cnccc1-c1cc(NC(=O)c2cc(F)cc(C(F)(F)F)c2)c2c(c1)C(=O)NC2c1cc(F)ccc1Cl` (centres unmarked) [Compound I-1215] showed a pIC50 of 6.30 to 7.00. Turning to `O=C(CC1CC1)Nc1cc(-c2ccc3ncnn3c2)cc2c1C(c1cc(F)ccc1Cl)NC2=O` (centres unmarked) [Compound I-1781], the pIC50 is 4.00 to 5.00. `O=C(Nc1cc(CC(O)C(F)(F)F)cc2c1C(c1cc(F)ccc1Cl)NC2=O)c1cc(F)cc(C(F)(F)F)c1` (centres unmarked) [Compound I-1200] had a pIC50 of at least 7.00. Turning to `CC(C)(O)c1cc(NC(=O)c2nsc3ccccc23)c2c(c1)C(=O)NC2c1ccccc1C(F)F` (centres unmarked) [Compound I-356], the pIC50 was at least 7.00. `O=C(Nc1cccc2c1C(C1(O)CCCCC1)NC2=O)c1cc(F)cc(C(F)(F)F)c1` (centres unmarked) [Compound I-1967] had a pIC50 of 4.00 to 5.00. To `O=C1NC(c2cc(F)ccc2Cl)c2c(NC(=O)N3CCn4c(nnc4C(F)(F)F)C3)cccc21` (centres unmarked) [Compound I-2111] belongs 4.00 to 5.00; to `CC1(Cc2cc(NC(=O)N3C[C@@](O)(C(F)(F)F)c4cc(F)ccc43)c3c(c2)C(=O)N[C@H]3c2cc(F)ccc2Cl)COC1` (single isomer, unassigned) [Compound I-2660], 4.00 to 5.00. Take `COC1CCCC(C(=O)Nc2cc(-c3ccc4ncnn4c3)cc3c2C(c2cc(F)ccc2Cl)NC3=O)C1` (mixture of isomers) [Compound I-2037]: the pIC50 is 4.00 to 5.00.

Regarding `O=C1NC(c2cc(F)ccc2Cl)c2c(NC(=O)N3CC(CO)C(C(F)(F)F)C3)cccc21` (centres unmarked) [Compound I-2181], the pIC50 is 4.00 to 5.00. To `O=C(Nc1cc(CN2CCn3ncnc3C2)cc2c1C(c1cc(F)ccc1Cl)NC2=O)c1cc(F)cc(C(F)(F)F)c1` (centres unmarked) [Compound I-1400] belongs at least 7.00; to `N#CC1(C(=O)Nc2cc(-c3ccc4ncnn4c3)cc3c2C(c2cc(F)ccc2Cl)NC3=O)CCCC1` (centres unmarked) [Compound I-1899], 4.00 to 5.00; to `O=C(Nc1cc(CO)cc2c1C(c1cc(F)ccc1Cl)NC2=O)c1cc(F)cc(C(F)(F)F)c1` (centres unmarked) [Compound I-185], at least 7.00.

`CN(C)c1cc(NC(=O)N2C[C@@](O)(C(F)(F)F)c3cc(F)ccc32)c2c(n1)C(=O)N[C@@H]2c1cc(F)ccc1Cl` (single isomer, unassigned) [Compound I-2693] gave a negative logarithm of the IC50 (pIC50) of 4.00 to 5.00. The value for `Cc1ccccc1C1NC(=O)c2cccc(NC(=O)c3c[nH]c(=O)c(Br)c3C)c21` (centres unmarked) [Compound I-504] was 4.00 to 5.00; that for `O=C(Nc1cc(Br)cc2c1[C@H](c1cc(Cl)cc(F)c1F)NC2=O)c1cc(F)cc(C(F)(F)F)c1` [Compound I-786] was at least 7.00.

`O=C(Nc1cncc2c1C(c1cc(F)ccc1Cl)NC2=O)c1cc(F)cc(C(F)(F)F)c1` (centres unmarked) [Compound I-553] had a pIC50 of at least 7.00. `CC(O)(c1ccncc1)c1cc(NC(=O)c2cc(F)cc(C(F)(F)F)c2)c2c(c1)C(=O)NC2c1cc(F)ccc1Cl` (centres unmarked) [Compound I-1403] gave a pIC50 of at least 7.00.

The compound `N#Cc1ccc2c(c1)CCCN2c1cc(NC(=O)c2cc(F)cc(C(F)(F)F)c2)c2c(c1)C(=O)NC2c1cc(F)ccc1Cl` (centres unmarked) [Compound I-1262] had a pIC50 of at least 7.00.
